Consider 1 compound from patent publication US20200214998A1, “Method for Treating a Brain Cancer” (Allianz Pharmascience Ltd., priority 2019, published 2020).

In this experiment the test system is U87MG-R. The experiment can be described thus: Orthotopic TMZ-resistant GBM mouse model, intracranial U87MG-R. To be noted: TMZ (15 mg/kg oral) plus vehicle; untreated control 21 days.

SMILES strings stand for the structures.

Description: Animal survival was evaluated from the first day of treatment until death.
TMZ-resistant GBM inoculated orthotopic mice were randomly grouped and treated with TMZ or TMZ plus JM17.
Briefly, a skull burr hole was first created in the right frontal brain area. An ultra-fine needle was then inserted to a depth of 3 mm using stereostatic guiding, and 5×10^5 TMZ-resistant cells were injected.
Twenty-eight-week-old nude mice received U87MG-R transplantation. Five days later, these animals were randomized into four treatment groups (7 animals per group), which received TMZ (15 mg/kg) by oral gavage and JM17 by the intravenous injection three times per week (Day 1, 3, 5 of the week) as follows: Control (untreated), TMZ plus vehicle, TMZ plus JM17 (5 mg/kg) and TMZ plus JM17 (20 mg/kg) (FIG. 5).

`Cn1nnc2c(C(N)=O)ncn2c1=O` [TMZ, temozolomide]: the median survival is given as 20 days.
